Assay results as given in the NIST ThermoML archive (doi:10.1016/j.fluid.2014.04.027).

Experiment: xn = mol fraction of the nth substance listed
Conditions: 100 kPa, Liquid, Alternating current cell with electrodes

CCCCCCCCCCCCOS(=O)(=O)[O-].[Na+] [sodium dodecyl sulfate] + O
electrical conductivity [S/m]
Conditions | 298.15 K | 308.15 K | 318.15 K
x1 = 6.348e-05 | 0.024 | 0.0249 | 0.0283
x1 = 6.643e-05 | 0.0245 | 0.0255 | 0.029
x1 = 6.967e-05 | 0.0252 | 0.0264 | 0.0298
x1 = 7.324e-05 | 0.0261 | 0.0273 | 0.0306
x1 = 7.72e-05 | 0.0269 | 0.0282 | 0.0317
x1 = 8.16e-05 | 0.0278 | 0.0292 | 0.0329
x1 = 8.4e-05 | 0.0284 | 0.0298 | 0.0334
x1 = 8.655e-05 | 0.0291 | 0.0304 | 0.034
x1 = 8.925e-05 | 0.0297 | 0.0311 | 0.0347
x1 = 9.213e-05 | 0.0305 | 0.0317 | 0.0355
x1 = 9.519e-05 | 0.0311 | 0.0323 | 0.0362
x1 = 9.847e-05 | 0.0317 | 0.0332 | 0.0371
x1 = 0.000102 | 0.0327 | 0.0339 | 0.038
x1 = 0.0001058 | 0.0335 | 0.0349 | 0.0389
x1 = 0.0001098 | 0.0345 | 0.0359 | 0.04
x1 = 0.0001142 | 0.0353 | 0.037 | 0.0412
x1 = 0.000119 | 0.0365 | 0.0382 | 0.0424
x1 = 0.0001241 | 0.0375 | 0.0394 | 0.0436
x1 = 0.0001298 | 0.0388 | 0.0408 | 0.045
x1 = 0.0001359 | 0.0401 | 0.0423 | 0.0465
x1 = 0.0001427 | 0.0414 | 0.0439 | 0.0481
x1 = 0.0001502 | – | 0.0455 | 0.0498
x1 = 0.0001586 | – | – | 0.052
